In data set [1] the target is T1, 5-Lipoxygenase (Rattus norvegicus, UniProt P12527).
T1 construct: from 20 μM exogenous substrate in 105.000 g supernatants of rat PMNL (System B); from tissue; host or cells: 105,000 g supernatant of sonicated peritoneal PMNL of Wistar rats
T1 sequence (P12527 1-673): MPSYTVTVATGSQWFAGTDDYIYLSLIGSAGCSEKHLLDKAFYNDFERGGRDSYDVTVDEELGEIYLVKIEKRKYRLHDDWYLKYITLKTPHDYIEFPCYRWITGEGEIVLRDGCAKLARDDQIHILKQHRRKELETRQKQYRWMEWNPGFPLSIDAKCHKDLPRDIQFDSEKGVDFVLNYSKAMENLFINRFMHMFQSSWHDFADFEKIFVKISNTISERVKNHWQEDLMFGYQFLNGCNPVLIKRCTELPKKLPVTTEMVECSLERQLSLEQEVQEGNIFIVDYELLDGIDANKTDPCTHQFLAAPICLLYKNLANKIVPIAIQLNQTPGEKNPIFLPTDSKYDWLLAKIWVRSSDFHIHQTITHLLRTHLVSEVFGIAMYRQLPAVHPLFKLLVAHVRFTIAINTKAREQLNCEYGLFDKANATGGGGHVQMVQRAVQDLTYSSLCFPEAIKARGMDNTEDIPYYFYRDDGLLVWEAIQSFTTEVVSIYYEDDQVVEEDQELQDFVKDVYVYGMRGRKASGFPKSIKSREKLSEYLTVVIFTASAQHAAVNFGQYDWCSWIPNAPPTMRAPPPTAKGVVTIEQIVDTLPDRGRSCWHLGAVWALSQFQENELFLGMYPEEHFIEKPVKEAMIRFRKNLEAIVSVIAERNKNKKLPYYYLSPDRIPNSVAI
Kind of data set: 5-LOX product formation from 20 μM exogenous substrate in 105,000 g supernatants of rat PMNL, cell-free (System B). Type of data set: biochemical. Particulars: cell-free 105,000 g supernatant of rat PMNL, 20 μM arachidonic acid, 1 mM ATP, 1.8 mM CaCl2, 37° C. 5 min; means±standard deviation, n=6. Here is the method:
(§1) Glycogen-elicited rat peritoneal PMNL were collected 4 hours after the injection of a glycogen solution (5%) in Dulbecco's phosphate-buffered saline (PBS) into the peritoneum of 300-350 g Wistar rats. The washed cells (>90% PMNL) were lysed at 2×10^7 cells mL^−1 by sonication (3×5 s, digital Sonifier) in PBS containing 1 mm EDTA, and were subjected to sequential centrifugation at 10,000 and 105,000 g for 10 and 60 min (4° C.), respectively. Freshly obtained PMNL suspensions and aliquots of the 105,000 g supernatants were assayed for 5-lipoxygenase activity.
(§2) For 5-lipoxygenase product formation from endogenous arachidonic acid, glycogen-elicited rat peritoneal PMNL (1×10^7 cells) were stimulated at 37° C. for 5 min by ionophore A23187 and Ca^2+. The 5-lipoxygenase activity in the cell-free system was tested in aliquots (corresponding to 1×10^7 cells) of the 105,000 g supernatant fraction of rat PMNL in the presence of 1 mm ATP, 1.8 mM CaCl2, 1 mM EDTA, and 20 μM arachidonic acid at 37° C. for 5 min. In both intact cells and cell-free tests, the incubations were terminated by cooling to 4° C. and acidification to pH of 3 with formic acid. For inhibition studies, the test compounds dissolved in dimethyl sulphoxide (DMSO) were added 5 min prior to initiation.
(§3) Inhibitors and non-inhibitory pentacyclic triterpenes were added simultaneously. All incubations, including controls, were carried out in the presence of 0.5% DMSO. The 5-lipoxygenase products were quantified after the addition of 170 ng PGB2 as an internal standard by extraction, with RP-HPLC separation and ultraviolet detection of products. With intact rat PMNL and the 105,000 g supernatant fraction the main products from arachidonic acid of 5 min incubations were leukotriene B4 (LTB4), 6-trans-LTB4, 12-epi-6-trans-LTB4 and 5-HETE along with negligible amounts of 5(S), 12(S)-diHETE.
(§4) FIG. 2 is a graph showing the effects of the pentacyclic triterpenoidal derivatives on 5-Lox product formation for System A. FIG. 3 is a graph showing the effects of the pentacyclic triterpenoidal derivatives on 5-Lox product formation for System B. Inhibition concentrations (IC50) of the biological effect of each of the compounds were determined after logit-log transformation of the data for each experiment. Data of independent observations (n=6) are shown as means±standard deviation.

Data set [2] concerns the target T1, 5-Lipoxygenase. Kind of data set: 5-LOX product formation from endogenous arachidonic acid in ionophore-stimulated intact rat PMNL (System A). It counts as cell-based. The note with it: ionophore A23187 and Ca2+, 37° C. 5 min, means±standard deviation, n=6. Here is the method:
as §1, §2, §3, §4

Structures are written as SMILES.

Broadly, the IC50 is the concentration needed to halve the response being measured. Take `CC1CCC2(C)CCC3(C)C(=CC(=O)C4C5(C)CCC(O)C(C)(C(=O)O)C5CCC43C)C2C1C` (stereo not drawn) [11-keto-β-boswellic acid/1, 11-keto-β-boswellic acid, reference compound]: the figures for the IC50 against 5-Lipoxygenase [1] and against 5-Lipoxygenase [2] were 14.6 µM and 2.8 µM, respectively.
Taken in the same sequence, the figures for `CC(=O)O[C@@H]1CC[C@@]2(C)[C@@H](CC[C@]3(C)[C@@H]2C(=O)C=C2[C@@H]4[C@@H](C)[C@H](C)CC[C@]4(C)CC[C@]23C)[C@@]1(C)C(=O)O` [AKBA, Acetyl-11-keto-β-boswellic acid, reference compound] were 7 µM and 1.5 µM.
Taken in the same sequence, the figures for `CC1CCC2(C)CCC3(C)C(=CC(=O)C4C5(C)CCC(=O)C(C)(C(=O)Cl)C5CCC43C)C2C1C` (stereo not drawn) [Compound 3, 3,11-dioxo-urs-12-en-24β-acid chloride] were 0.34 µM and 0.19 µM.
Broadly, the melting point is the temperature, or range, at which the solid turns liquid. In the case of `CC1CCC2(C)CCC3(C)C(=CC(=O)C4C5(C)CCC(=O)C(C)(C(=O)c6ccccc6)C5CCC43C)C2C1C` (centres unmarked) [Compound 4, 3,11-dioxo-24(phenyl)-urs-12-en-24-one], the melting point was determined as 300 °C. The IC50 against 5-Lipoxygenase [1] was 0.098 µM. Further, the IC50 on 5-Lipoxygenase [2] worked out at 0.078 µM.
Taken in the same sequence, the figures for `CC1CCC2(C)CCC3(C)C(=CC(=O)C4C5(C)CCC(=O)C(C)(c6ccccc6)C5CCC43C)C2C1C` (centres unmarked) [Compound 5, 24-norurs-12-en-24(phenyl)-3,11-dione] were 256 °C, 0.28 µM and 0.17 µM.
For the compound `CC1CCC2(C)CCC3(C)C(=CC(=O)C4C5(C)C=CC(=O)C(C)(C(=O)c6ccccc6)C5CCC43C)C2C1C` (centres unmarked) [Compound 6, 3,11-dioxo-24(Phenyl)-urs-1,12-diene-24-one], the IC50 worked out at 0.044 µM against 5-Lipoxygenase [1] and 0.021 µM against 5-Lipoxygenase [2].
`CC1CCC2(C)CCC3(C)C(=CC(=O)C4C5(C)C=CC(=O)C(C)(c6ccccc6)C5CCC43C)C2C1C` (centres unmarked) [Compound 7, 24-nor-urs-1,12-diene-24(phenyl)-3,11-dione] registered a melting point of 267 °C. The IC50 on 5-Lipoxygenase [1] was 0.24 µM. This compound returned an IC50 at 5-Lipoxygenase [2] of 0.12 µM.

The values are drawn from patent US9975917B1, “Pentacyclic triterpenoidal derivatives” (KING SAUD UNIVERSITY, priority 2017, dated 2018).
